Test results published in ChEMBL document CHEMBL2406955, “Synthesis and cytotoxic activities of novel hybrid 2-phenyl-3-alkylbenzofuran and imidazole/triazole compounds” (Bioorg Med Chem Lett, 2013).

Assays:
HL-60 = experiment: Cytotoxicity against human HL60 cells after 48 hrs by MTT assay; type: functional, cell-based; settings: HL-60, 48 h
MCF7 [1] = experiment: Cytotoxicity against human MCF7 cells after 48 hrs by MTT assay; type: functional, cell-based; settings: MCF7, 48 h
SW480 [2] = experiment: Cytotoxicity against human SW480 cells after 48 hrs by MTT assay; type: functional, cell-based; settings: SW480, 48 h
A549 = experiment: Cytotoxicity against human A549 cells after 48 hrs by MTT assay; type: functional, cell-based; settings: A549, 48 h
SMMC-7721 = experiment: Cytotoxicity against human SMMC7721 cells after 48 hrs by MTT assay; type: functional, cell-based; settings: SMMC-7721, 48 h
[3] = biological target: Serine/threonine-protein kinase mTOR (Homo sapiens) (UniProt P42345); experiment: Inhibition of mTOR (unknown origin) assessed as ratio of cytoplasmic to nuclear level of eukaryotic initiation factor 4E
SW480 [4] = experiment: Ratio of cisplatin IC50 to compound IC50 for human SW480 cells; type: functional
MCF7 [5] = experiment: Ratio of cisplatin IC50 to compound IC50 for human MCF7 cells; type: functional

Ratio [3] | SMILES | IC50 (HL-60) [µM] | IC50 (MCF7 [1]) [µM] | IC50 (SW480 [2]) [µM] | IC50 (A549) [µM] | IC50 (SMMC-7721) [µM] | Ratio IC50 (SW480 [4]) | Ratio IC50 (MCF7 [5])
 | O=C(C[n+]1cn(Cc2c(-c3ccccc3)oc3ccccc23)c2ccccc21)c1ccc2ccccc2c1 | 2.34 | 3.24 | 3.61 | 4.5 | 2.63 |  | 
 | c1ccc(-c2oc3ccccc3c2Cn2cncn2)cc1 | > 40 | > 40 | > 40 | > 40 | > 40 |  | 
1.32 | COc1ccc(C(=O)C[n+]2cn(Cc3c(-c4ccccc4)oc4ccccc34)c3ccccc32)cc1 | 0.61 | 23.8 | > 40 | 9.12 | 16.6 |  | 
1.55 | CCc1n(Cc2c(-c3ccccc3)oc3ccccc23)cc[n+]1CC(=O)c1ccc2ccccc2c1 | 0.61 | 3.03 | 3.14 | 5.35 | 2.3 |  | 
 | Brc1ccccc1C[n+]1cnn(Cc2c(-c3ccccc3)oc3ccccc23)c1 | 9 | 16.3 | 18.9 | 33.1 | 21.9 |  | 
 | CCCC[n+]1cnn(Cc2c(-c3ccccc3)oc3ccccc23)c1 | > 40 | > 40 | > 40 | > 40 | > 40 |  | 
 | c1ccc(-c2oc3ccccc3c2Cn2cnc3ccccc32)cc1 | > 40 | > 40 | > 40 | > 40 | > 40 |  | 
1.59 | CO[C@H]1C[C@@H]2CC[C@@H](C)[C@@](O)(O2)C(=O)C(=O)N2CCCC[C@H]2C(=O)O[C@H]([C@H](C)C[C@@H]2CC[C@@H](O)[C@H](OC)C2)CC(=O)[C@H](C)/C=C(\C)[C@@H](O)[C@@H](OC)C(=O)[C@H](C)C[C@H](C)/C=C/C=C/C=C/1C |  |  |  |  |  |  | 
 | c1ccc(-c2oc3ccccc3c2Cn2ccnc2)cc1 | > 40 | > 40 | > 40 | > 40 | > 40 |  | 
 | Brc1ccccc1C[n+]1ccn(Cc2c(-c3ccccc3)oc3ccccc23)c1 | 1.86 | 5.58 | 10.3 | 11.2 | 6.61 |  | 
 | O=C(C[n+]1cn(Cc2c(-c3ccccc3)oc3ccccc23)c2ccccc21)c1ccccc1 | 1.97 | 3.92 | 3.44 | 12.2 | 8.46 |  | 
 | O=C(C[n+]1cnn(Cc2c(-c3ccccc3)oc3ccccc23)c1)c1ccc(F)cc1 | 9.67 | 16.4 | 16.8 | 15.1 | 9.21 |  | 
 | O=C(c1ccccc1)C(c1ccccc1)[n+]1cnn(Cc2c(-c3ccccc3)oc3ccccc23)c1 (stereo unspecified) | 15.9 | 20.7 | 20.9 | 16.8 | 16.1 |  | 
 | O=C(C[n+]1cn(Cc2c(-c3ccccc3)oc3ccccc23)c2ccccc21)c1ccc(F)cc1 | 2.03 | 3.13 | 3.29 | 11.8 | 9.41 |  | 
0.96 | O=C(C[n+]1cnn(Cc2c(-c3ccccc3)oc3ccccc23)c1)c1ccc2ccccc2c1 | 2.33 | 3.11 | 2.89 | 2.06 | 1.86 |  | 
1.11 | O=C(C[n+]1cnn(Cc2c(-c3ccccc3)oc3ccccc23)c1)c1ccccc1 | 3.51 | 14.7 | 17.1 | 13.7 | 5.76 |  | 
1.54 | c1ccc(C[n+]2cn(Cc3c(-c4ccccc4)oc4ccccc34)c3ccccc32)cc1 | 1.96 | 3.49 | 3.26 | 7.09 | 4.81 |  | 
1.52 | Brc1ccccc1C[n+]1cn(Cc2c(-c3ccccc3)oc3ccccc23)c2ccccc21 | 0.64 | 4.78 | 5.56 | 3.34 | 2.1 |  | 
 | CCc1n(Cc2c(-c3ccccc3)oc3ccccc23)cc[n+]1CC(=O)c1ccc(F)cc1 | 0.99 | 5.03 | 11.3 | 14.6 | 8.13 |  | 

Ratio [3] | SMILES | IC50 (HL-60) [µM] | IC50 (MCF7 [1]) [µM] | IC50 (SW480 [2]) [µM] | IC50 (A549) [µM] | IC50 (SMMC-7721) [µM] | Ratio IC50 (SW480 [4]) | Ratio IC50 (MCF7 [5])
 | O=C(C[n+]1cn(Cc2c(-c3ccccc3)oc3ccccc23)c2ccccc21)c1ccc(Br)cc1 | 2.11 | 4.08 | 4.37 | 5.25 | 2.94 |  | 
 | CCc1nccn1Cc1c(-c2ccccc2)oc2ccccc12 | > 40 | > 40 | > 40 | > 40 | > 40 |  | 
 | O=C(C[n+]1cnn(Cc2c(-c3ccccc3)oc3ccccc23)c1)c1ccc(O)cc1 | > 40 | > 40 | > 40 | > 40 | > 40 |  | 
 | O=C(C[n+]1ccn(Cc2c(-c3ccccc3)oc3ccccc23)c1)c1ccc2ccccc2c1 | 2.06 | 3.68 | 3.48 | 14 | 9.42 |  | 
 | CCc1n(Cc2c(-c3ccccc3)oc3ccccc23)cc[n+]1CC(=O)c1ccc(Br)cc1 | 0.72 | 2.89 | 3.58 | 12.8 | 6.07 |  | 
 | COc1ccc(C(=O)C[n+]2cnn(Cc3c(-c4ccccc4)oc4ccccc34)c2)cc1 | 3.22 | 14.9 | 17.2 | 13.7 | 5.76 |  | 
 | CCc1n(Cc2c(-c3ccccc3)oc3ccccc23)cc[n+]1CC(=O)c1ccc(OC)cc1 | 0.58 | 3.17 | 5.69 | 12.9 | 11.8 |  | 
 | O=C(C[n+]1ccn(Cc2c(-c3ccccc3)oc3ccccc23)c1)c1ccc(Br)cc1 | 1.57 | 3.65 | 3.36 | 13.8 | 17.8 |  | 
 | CCc1n(Cc2c(-c3ccccc3)oc3ccccc23)cc[n+]1CC(=O)c1ccc(O)cc1 | 13.2 | 17.4 | > 40 | 27.1 | 13.1 |  | 
 | O=C(C[n+]1ccn(Cc2c(-c3ccccc3)oc3ccccc23)c1)c1ccccc1 | 2.49 | 15.5 | 15.5 | > 40 | 9.83 |  | 
1.12 | COc1ccc(C(=O)C[n+]2ccn(Cc3c(-c4ccccc4)oc4ccccc34)c2)cc1 | 2.28 | 10.3 | 11.9 | 16.3 | 16.5 |  | 
 | O=C(C[n+]1cnn(Cc2c(-c3ccccc3)oc3ccccc23)c1)c1ccc(Br)cc1 | 9.71 | 10.4 | 14.6 | 14.6 | 10.8 |  | 
 | c1ccc(C[n+]2cnn(Cc3c(-c4ccccc4)oc4ccccc34)c2)cc1 | > 40 | > 40 | > 40 | > 40 | > 40 |  | 
 | O=C(C[n+]1ccn(Cc2c(-c3ccccc3)oc3ccccc23)c1)c1ccc(F)cc1 | 2.98 | 14.6 | 15.5 | > 40 | 13.4 |  | 
 | O=C(C[n+]1cn(Cc2c(-c3ccccc3)oc3ccccc23)c2ccccc21)c1ccc(O)cc1 | 13 | 16.2 | 18.2 | 34 | 20.7 |  | 
1.07 | CCc1n(Cc2c(-c3ccccc3)oc3ccccc23)cc[n+]1Cc1ccccc1Br.[Br-] | 0.08 | 0.51 | 0.47 | 0.55 | 0.52 | 40.1 | 40.8
 | CCc1n(Cc2c(-c3ccccc3)oc3ccccc23)cc[n+]1CC(=O)c1ccccc1 | 2.09 | 7.53 | 11.9 | 12.5 | 5.01 |  | 
 | O=C(C[n+]1ccn(Cc2c(-c3ccccc3)oc3ccccc23)c1)c1ccc(O)cc1 | > 40 | > 40 | > 40 | > 40 | > 40 |  | 
